Assay results: US20240398805A1, “QUINAZOLINE DERIVED COMPOUNDS AS EGFR INHIBITORS AND THEIR USES THEREOF” (ACCUTAR BIOTECHNOLOGY INC., priority 2021, published 2024)

What was measured:
Format in all cases: cell-based
[1] = system: HCC827 cells; test: Cell growth inhibition (CellTiter-Glo, 3 days) in HCC827; conditions: Homo sapiens, 72 h, 3 days after administration
Procedure: (§1) 2. Cell Growth Inhibition for HCC827, HCC827-SVD, HCC827-ASV, HCC827-YVMA and A431.
(§2) HCC827(ATCC), HCC827-SVD, HCC827-ASV, HCC827-YVMA were seeded in 96-well plates at 5000 cells/well in 90 μl of RPMI growth medium containing 10% FBS and 1% Penicillin Streptomycin. A431 (ATCC) cells were seed in 96-well plates at 5000 cells/well in 90 μl of DMEM growth medium containing 10% FBS and 1% Penicillin Streptomycin. Cells were incubated at 3700 overnight. The following day, the test compound was administered to the cells by using 1 Ox compound stock solution prepared in growth medium at various concentrations. After administration of the compound, cells were then incubated at 3700 for 3 days. Before CeIlTiter-Glo assay, the plates were equilibrated at room temperature for approximately 10 minutes. 100 ul of CelTiter-Glo® Reagent (Promega) was added to each well. The plates were then incubated at room temperature for 10 minutes and luminescence was recorded by EnSpire plate reader (PerkinElmer).

[2] = system: HCC827-SVD cells (human EGFR exon 20 insertion mutant D770_N771 insSVD); test: Cell growth inhibition (CellTiter-Glo, 3 days) in HCC827-SVD; conditions: 72 h, 3 days after administration
Procedure: (§3) 1. Preparation of HCC827-SVD, HCC827-ASV and HCC827-YVMA Cell Lines
HCC827-SVD cell line were generated by first transducing HCC827 cells (ATCC) with lentiviral particles expressing codon-optimized human EGFR exon 20 insertion mutant D770_N771 insSVD, and then selecting under 5 μg/ml purimycin treatment for a week.
The resulting cells were further transduced with lentiviral particles carrying EGFR sgRNA and CAS9 to knockout the endogenous alleles of EGFR, and then selected under 500 μg/ml hygromycin B treatment for two weeks. Single clone was subsequently generated by limiting dilution approach. Endogenous EGFR knockout was confirmed by Sanger sequencing of cell genomic DNA and expression of exogenous mutant EGFR was verified by Western blot analysis.
as §1, §2

[3] = system: HCC827-ASV cells (human EGFR exon 20 insertion mutant A769_D770insASV); test: Cell growth inhibition (CellTiter-Glo, 3 days) in HCC827-ASV; conditions: 72 h, 3 days after administration
Description: as §3
(§4) HCC827-ASV and HCC827-YVMA cell lines were generated in the similar approach as HCC827-SVD except that HCC827 cells (ATCC) were first transduced with lentiviral particles expressing codon-optimized human EGFR exon 20 insertion mutant A769_D770insASV and human ERBB2 exon20 insertion mutant A775_G776ins YVMA, respectively.
as §1, §2

[4] = system: HCC827-YVMA cells (human ERBB2 exon20 insertion mutant A775_G776ins YVMA); test: Cell growth inhibition (CellTiter-Glo, 3 days) in HCC827-YVMA; conditions: 72 h, 3 days after administration
Description: as §3, §4, §1, §2

[5] = system: A431 cells; test: Cell growth inhibition (CellTiter-Glo, 3 days) in A431; conditions: Homo sapiens, A-431, 72 h, 3 days after administration
Procedure: as §1, §2

GI50 [1] [nM]	GI50 [2] [nM]	GI50 [3] [nM]	GI50 [4] [nM]	GI50 [5] [nM]	SMILES
300 to 600	60 to 100	30 to 60	60 to 100	300 to 600	C=CC(=O)N1CCC(Nc2cc3c(Nc4ccc(Oc5ccn(-c6cnc(OC)nc6)n5)cc4F)ncnc3cc2OC)CC1 [Compound 1, 1-(4-((4-((2-fluoro-4-((1-(2-methoxypyrimidin-5-yl)-1H-pyrazol-3-yl)oxy)phenyl)amino)-7-methoxyquinazolin-6-yl)amino)piperidin-1-yl)prop-2-en-1-one]
< 30	< 30	< 30	< 30	60 to 100	C=CC(=O)N1CCC(Nc2cc3c(Nc4ccc(Oc5ccn(-c6cnc(C)c(F)c6)n5)cc4F)ncnc3cc2OC)CC1 [Compound 2, 1-(4-((4-((2-fluoro-4-((1-(5-fluoro-6-methylpyridin-3-yl)-1H-pyrazol-3-yl)oxy)phenyl)amino)-7-methoxyquinazolin-6-yl)amino)piperidin-1-yl)prop-2-en-1-one]
300 to 600	60 to 100	30 to 60	30 to 60	100 to 300	C=CC(=O)N1CCC(Nc2cc3c(Nc4ccc(Oc5ccn(-c6ccc(C)nc6)n5)cc4F)ncnc3cc2OC)CC1 [Compound 3, 1-(4-((4-((2-fluoro-4-((1-(6-methylpyridin-3-yl)-1H-pyrazol-3-yl)oxy)phenyl)amino)-7-methoxyquinazolin-6-yl)amino)piperidin-1-yl)prop-2-en-1-one]
300 to 600	100 to 300	100 to 300	100 to 300	300 to 600	C=CC(=O)N1CCC(Nc2cc3c(Nc4ccc(Oc5nc(-c6nnc(C(C)C)o6)cs5)cc4F)ncnc3cc2OC)CC1 [Compound 4, 1-(4-((4-((2-fluoro-4-((4-(5-isopropyl-1,3,4-oxadiazol-2-yl)thiazol-2-yl)oxy)phenyl)amino)-7-methoxyquinazolin-6-yl)amino)piperidin-1-yl)prop-2-en-1-one]
100 to 300	100 to 300	100 to 300	100 to 300	300 to 600	C=CC(=O)N1CCC(Nc2cc3c(Nc4ccc(Oc5ncc(-c6ccc(C)nc6)s5)cc4F)ncnc3cc2OC)CC1 [Compound 5, 1-(4-((4-((2-fluoro-4-((5-(6-methylpyridin-3-yl)thiazol-2-yl)oxy)phenyl)amino)-7-methoxyquinazolin-6-yl)amino)piperidin-1-yl)prop-2-en-1-one]
≥ 1000	300 to 600	300 to 600	300 to 600	300 to 600	C=CC(=O)N1CCC(Nc2cc3c(Nc4ccc(Oc5nc(-c6ccc(C)nc6)cs5)cc4F)ncnc3cc2OC)CC1 [Compound 6, 1-(4-((4-((2-fluoro-4-((4-(6-methylpyridin-3-yl)thiazol-2-yl)oxy)phenyl)amino)-7-methoxyquinazolin-6-yl)amino)piperidin-1-yl)prop-2-en-1-one]
< 30	< 30	< 30	< 30	< 30	C=CC(=O)N1CCC(Nc2cc3c(Nc4ccc(Oc5ccn6ncnc6c5)c(Cl)c4)ncnc3cc2OC)CC1 [Compound 7, 1-(4-((4-((4-([1,2,4]triazolo[1,5-a]pyridin-7-yloxy)-3-chlorophenyl)amino)-7-methoxyquinazolin-6-yl)amino)piperidin-1-yl)prop-2-en-1-one]
100 to 300	30 to 60	100 to 300	30 to 60	300 to 600	C=CC(=O)N1CC[C@H](Nc2cc3c(Nc4ccc(Oc5ccn(-c6cnc(OC)nc6)n5)cc4F)ncnc3cc2OC)C1 [Compound 8, (S)-1-(3-((4-((2-fluoro-4-((1-(2-methoxypyrimidin-5-yl)-1H-pyrazol-3-yl)oxy)phenyl)amino)-7-methoxyquinazolin-6-yl)amino)pyrrolidin-1-yl)prop-2-en-1-one]
≥ 1000	≥ 1000	≥ 1000	≥ 1000	≥ 1000	C=CC(=O)N1CC[C@@H](Nc2cc3c(Nc4ccc(Oc5ccn(-c6cnc(OC)nc6)n5)cc4F)ncnc3cc2OC)C1 [Compound 9, (R)-1-(3-((4-((2-fluoro-4-((1-(2-methoxypyrimidin-5-yl)-1H-pyrazol-3-yl)oxy)phenyl)amino)-7-methoxyquinazolin-6-yl)amino)pyrrolidin-1-yl)prop-2-en-1-one]
30 to 60	< 30	< 30	< 30	300 to 600	C=CC(=O)N1CCC(Nc2cc3c(Nc4ccc(Oc5ccn(-c6cnc(C)c(Cl)c6)n5)cc4F)ncnc3cc2OC)CC1 [Compound 10, 1-(4-((4-((4-((1-(5-chloro-6-methylpyridin-3-yl)-1H-pyrazol-3-yl)oxy)-2-fluorophenyl)amino)-7-methoxyquinazolin-6-yl)amino)piperidin-1-yl)prop-2-en-1-one]
60 to 100	30 to 60	30 to 60	60 to 100	100 to 300	C=CC(=O)N1CCC(Nc2cc3c(Nc4ccc(Oc5ccn(-c6cnc(C)c(C#N)c6)n5)cc4F)ncnc3cc2OC)CC1 [Compound 11, 5-(3-(4-((6-((1-acryloylpiperidin-4-yl)amino)-7-methoxyquinazolin-4-yl)amino)-3-fluorophenoxy)-1H-pyrazol-1-yl)-2-methylnicotinonitrile]
30 to 60	< 30	< 30	< 30	100 to 300	C=CC(=O)N1CCC(Nc2cc3c(Nc4ccc(Oc5ccn(-c6ccc(OC)nc6)n5)cc4F)ncnc3cc2OC)CC1 [Compound 12, 1-(4-((4-((2-fluoro-4-((1-(6-methoxypyridin-3-yl)-1H-pyrazol-3-yl)oxy)phenyl)amino)-7-methoxyquinazolin-6-yl)amino)piperidin-1-yl)prop-2-en-1-one]
< 30	< 30	< 30	< 30	300 to 600	C=CC(=O)N1CCC(Nc2cc3c(Nc4ccc(Oc5ccn(-c6cnc(C)c(F)c6)n5)cc4F)ncnc3cc2OCC)CC1 [Compound 13, 1-(4-((7-ethoxy-4-((2-fluoro-4-((1-(5-fluoro-6-methylpyridin-3-yl)-1H-pyrazol-3-yl)oxy)phenyl)amino)quinazolin-6-yl)amino)piperidin-1-yl)prop-2-en-1-one]
60 to 100	100 to 300	100 to 300	60 to 100	60 to 100	C=CC(=O)N1CCC(Nc2cc3c(Nc4ccc(Oc5ccn(-c6ccc(C)cn6)n5)cc4F)ncnc3cc2OC)CC1 [Compound 14]
100 to 300	100 to 300	100 to 300	60 to 100	100 to 300	C=CC(=O)N1CCC(Nc2cc3c(Nc4ccc(Oc5ccn(-c6cc(F)c(C)cn6)n5)cc4F)ncnc3cc2OC)CC1 [Compound 15, 1-(4-((4-((2-fluoro-4-((1-(4-fluoro-5-methylpyridin-2-yl)-1H-pyrazol-3-yl)oxy)phenyl)amino)-7-methoxyquinazolin-6-yl)amino)piperidin-1-yl)prop-2-en-1-one]
< 30	< 30	< 30	< 30	300 to 600	C=CC(=O)N1CCC(Nc2cc3c(Nc4ccc(Oc5ccn(-c6ccc(C)cn6)n5)c(Cl)c4)ncnc3cc2OC)CC1 [Compound 16]
≥ 1000	≥ 1000	≥ 1000	300 to 600	≥ 1000	COc1cc2ncnc(Nc3ccc(Oc4ccn(-c5cnc(C)c(F)c5)n4)cc3F)c2cc1NC1CCN(C(=O)/C=C/CN(C)C)CC1 [Compound 21, (2E)-4-(dimethylamino)-1-[4-({4-[(2-fluoro-4-{[1-(5-fluoro-6-methylpyridin-3-yl)pyrazol-3-yl]oxy}phenyl)amino]-7-methoxyquinazolin-6-yl}amino)piperidin-1-yl]but-2-en-1-one]
300 to 600	100 to 300			300 to 600	C=CC(=O)N1CC[C@H](Oc2cc3c(Nc4ccc(Oc5ccn(-c6cnc(OC)nc6)n5)cc4F)ncnc3cc2OC)C1 [Compound 81, (S)-1-(3-((4-((2-fluoro-4-((1-(2-methoxypyrimidin-5-yl)-1H-pyrazol-3-yl)oxy)phenyl)amino)-7-methoxyquinazolin-6-yl)oxy)pyrrolidin-1-yl) prop-2-en-1-one]
